Assay results from PubChem BioAssay (NCI).
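Results reflect a 48-hour exposure of cells in 96-well plates to compound at five concentrations. TGI marks complete inhibition of growth.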

What was measured:
Assay in all cases: growth of human tumour cells (NCI), 48 h
KM12 colon = system: KM12 colon
SNB-75 CNS = system: SNB-75 CNS
UACC-257 melanoma = system: UACC-257 melanoma
SN12C renal = system: SN12C renal
OVCAR-8 ovarian = system: OVCAR-8 ovarian
SF-268 CNS = system: SF-268 CNS
SW-620 colon = system: SW-620 colon
CAKI-1 renal = system: CAKI-1 renal
MDA-MB-231 breast = system: MDA-MB-231 breast
U251 CNS = system: U251 CNS
UACC-62 melanoma = system: UACC-62 melanoma
SK-MEL-28 melanoma = system: SK-MEL-28 melanoma
NCI-H226 lung = system: NCI-H226 lung
EKVX NSCLC = system: EKVX NSCLC
MCF7 breast = system: MCF7 breast
OVCAR-4 ovarian = system: OVCAR-4 ovarian
OVCAR-3 ovarian = system: OVCAR-3 ovarian
NCI-H23 lung = system: NCI-H23 lung
MDA-N = system: MDA-N
OVCAR-5 ovarian = system: OVCAR-5 ovarian
IGROV1 ovarian = system: IGROV1 ovarian
SR leukemia = system: SR leukemia
DU-145 prostate = system: DU-145 prostate
PC-3 prostate = system: PC-3 prostate
K-562 leukemia = system: K-562 leukemia
TK-10 renal = system: TK-10 renal
SK-MEL-2 melanoma = system: SK-MEL-2 melanoma
HT29 colon = system: HT29 colon
MOLT-4 leukemia = system: MOLT-4 leukemia
RXF 393 renal = system: RXF 393 renal
HL-60(TB) leukemia = system: HL-60(TB) leukemia
SK-OV-3 ovarian = system: SK-OV-3 ovarian
NCI-H522 lung = system: NCI-H522 lung
HCC-2998 colon = system: HCC-2998 colon
M14 melanoma = system: M14 melanoma
A498 renal = system: A498 renal
RPMI-8226 leukemia = system: RPMI-8226 leukemia
SNB-19 CNS = system: SNB-19 CNS
SF-539 CNS = system: SF-539 CNS
COLO 205 colon = system: COLO 205 colon
786-0 renal = system: 786-0 renal
LOX IMVI melanoma = system: LOX IMVI melanoma
A549 NSCLC = system: A549 NSCLC
SF-295 CNS = system: SF-295 CNS
SK-MEL-5 melanoma = system: SK-MEL-5 melanoma
HOP-92 NSCLC = system: HOP-92 NSCLC
BT-549 breast = system: BT-549 breast
MDA-MB-435 = system: MDA-MB-435
CCRF-CEM leukemia = system: CCRF-CEM leukemia
ACHN renal = system: ACHN renal
T-47D breast = system: T-47D breast
HS 578T breast = system: HS 578T breast
HOP-62 NSCLC = system: HOP-62 NSCLC
HCT-116 colon = system: HCT-116 colon
HCT-15 colon = system: HCT-15 colon
UO-31 renal = system: UO-31 renal
NCI/ADR-RES ovarian = system: NCI/ADR-RES ovarian
MALME-3M melanoma = system: MALME-3M melanoma

COC(=O)c1ccc2cc(O)c(O)cc2c1
TGI (KM12 colon): > 100 µM
TGI (SNB-75 CNS): > 100 µM
TGI (UACC-257 melanoma): > 96.7 µM
TGI (SN12C renal): > 100 µM
TGI (OVCAR-8 ovarian): > 91.3 µM
TGI (SF-268 CNS): > 81.1 µM
TGI (SW-620 colon): > 100 µM
TGI (CAKI-1 renal): > 100 µM
TGI (MDA-MB-231 breast): > 100 µM
TGI (U251 CNS): > 100 µM
TGI (UACC-62 melanoma): > 79.3 µM
TGI (SK-MEL-28 melanoma): > 100 µM
TGI (NCI-H226 lung): > 100 µM
TGI (EKVX NSCLC): > 100 µM
TGI (MCF7 breast): > 100 µM
TGI (OVCAR-4 ovarian): > 100 µM
TGI (OVCAR-3 ovarian): > 100 µM
TGI (NCI-H23 lung): > 82 µM
TGI (MDA-N): > 100 µM
TGI (OVCAR-5 ovarian): > 100 µM
TGI (IGROV1 ovarian): > 100 µM
TGI (SR leukemia): > 60 µM
TGI (DU-145 prostate): > 100 µM
TGI (PC-3 prostate): > 100 µM
TGI (K-562 leukemia): > 100 µM
TGI (TK-10 renal): > 100 µM
TGI (SK-MEL-2 melanoma): > 100 µM
TGI (HT29 colon): > 100 µM
TGI (MOLT-4 leukemia): > 68.8 µM
TGI (RXF 393 renal): > 100 µM
TGI (HL-60(TB) leukemia): > 100 µM
TGI (SK-OV-3 ovarian): > 100 µM
TGI (NCI-H522 lung): > 64.7 µM
TGI (HCC-2998 colon): > 100 µM
TGI (M14 melanoma): > 100 µM
TGI (A498 renal): > 100 µM
TGI (RPMI-8226 leukemia): > 100 µM
TGI (SNB-19 CNS): > 100 µM
TGI (SF-539 CNS): > 100 µM
TGI (COLO 205 colon): > 100 µM
TGI (786-0 renal): > 100 µM
TGI (LOX IMVI melanoma): > 100 µM
TGI (A549 NSCLC): > 100 µM
TGI (SF-295 CNS): > 100 µM
TGI (SK-MEL-5 melanoma): > 70.2 µM
TGI (HOP-92 NSCLC): > 100 µM
TGI (BT-549 breast): > 90.6 µM
TGI (MDA-MB-435): > 100 µM
TGI (CCRF-CEM leukemia): > 60.4 µM
TGI (ACHN renal): > 100 µM
TGI (T-47D breast): > 100 µM
TGI (HS 578T breast): > 100 µM
TGI (HOP-62 NSCLC): > 100 µM
TGI (HCT-116 colon): > 100 µM
TGI (HCT-15 colon): > 100 µM
TGI (UO-31 renal): 55.3 µM
TGI (NCI/ADR-RES ovarian): > 78.2 µM
TGI (MALME-3M melanoma): > 79 µM

CN(C)C=Nc1ccc2c3c(cccc13)-c1ccccc1-2
TGI (SNB-75 CNS): 28.9 µM
TGI (UACC-257 melanoma): 31.9 µM
TGI (SN12C renal): 25.1 µM
TGI (OVCAR-8 ovarian): 29.8 µM
TGI (SF-268 CNS): 26.8 µM
TGI (MDA-MB-231 breast): 28.2 µM
TGI (U251 CNS): 26.2 µM
TGI (UACC-62 melanoma): 38.8 µM
TGI (SK-MEL-28 melanoma): 31.9 µM
TGI (NCI-H226 lung): 22.8 µM
TGI (EKVX NSCLC): 22.4 µM
TGI (MCF7 breast): 30.7 µM
TGI (OVCAR-4 ovarian): 31.6 µM
TGI (OVCAR-3 ovarian): 28.9 µM
TGI (NCI-H23 lung): 32.9 µM
TGI (MDA-N): 27.6 µM
TGI (OVCAR-5 ovarian): 23.1 µM
TGI (IGROV1 ovarian): 28.8 µM
TGI (SR leukemia): 26.3 µM
TGI (DU-145 prostate): 25.7 µM
TGI (PC-3 prostate): 26.3 µM
TGI (K-562 leukemia): 22.1 µM
TGI (TK-10 renal): 26.7 µM
TGI (SK-MEL-2 melanoma): 31.1 µM
TGI (HT29 colon): 21.6 µM
TGI (MOLT-4 leukemia): 24.8 µM
TGI (RXF 393 renal): 21 µM
TGI (HL-60(TB) leukemia): 23.2 µM
TGI (SK-OV-3 ovarian): 26.5 µM
TGI (NCI-H522 lung): 18.8 µM
TGI (M14 melanoma): 22.1 µM
TGI (A498 renal): 21.7 µM
TGI (RPMI-8226 leukemia): 38.9 µM
TGI (SNB-19 CNS): 27.4 µM
TGI (SF-539 CNS): 24.5 µM
TGI (COLO 205 colon): 30.9 µM
TGI (786-0 renal): 26 µM
TGI (LOX IMVI melanoma): 28.3 µM
TGI (A549 NSCLC): 23.7 µM
TGI (SF-295 CNS): 27.9 µM
TGI (SK-MEL-5 melanoma): 28.1 µM
TGI (HOP-92 NSCLC): 24.9 µM
TGI (BT-549 breast): 32 µM
TGI (MDA-MB-435): 28.3 µM
TGI (CCRF-CEM leukemia): 17.2 µM
TGI (ACHN renal): 31.6 µM
TGI (T-47D breast): 31.3 µM
TGI (HS 578T breast): 24.9 µM
TGI (HOP-62 NSCLC): 29.5 µM
TGI (HCT-116 colon): 28.7 µM
TGI (HCT-15 colon): 24.1 µM
TGI (UO-31 renal): 19.6 µM
TGI (NCI/ADR-RES ovarian): 31.4 µM
TGI (MALME-3M melanoma): 34.6 µM
